Where two headings read alike, the source gives them in different places. *1 amine or outer side, *2 acyl side, *3 side chain or, on linkers, in order; H or OH if unused. Where a SMILES comes first, the peptide text is derived from it. Bridges are numbered along the chain shown (N, C = ends). [ ]: non-standard residue; d: D form. The star is where a group is joined. Acetyl(4-DOTA-piperazinyl) = O=C(O)CN1CCN(CC(=O)O)CCN(CC(=O)N2CCN(CC(=O)*)CC2)CCN(CC(=O)O)CC1; DOTA = O=C(O)CN1CCN(CC(=O)O)CCN(CC(=O)*)CCN(CC(=O)O)CC1; Phe(3-Cl) = N[C@@H](Cc1cccc(Cl)c1)C(=O)O; Phe(4-Cl) = N[C@@H](Cc1ccc(Cl)cc1)C(=O)O; Pro(cis-4-F) = O=C(O)[C@@H]1C[C@H](F)CN1; Pro(4R-NH2) = N[C@H]1CN[C@H](C(=O)O)C1; 1Nal = N[C@@H](Cc1cccc2ccccc12)C(=O)O; mTyr = N[C@@H](Cc1cccc(O)c1)C(=O)O; Ala(cPr) = N[C@@H](CC1CC1)C(=O)O; Hyp = O=C(O)[C@@H]1C[C@@H](O)CN1; Pentanoyl(4-Me) = CC(C)CCC(=O)*; Cha = N[C@@H](CC1CCCCC1)C(=O)O; Cit = NC(=O)NCCC[C@H](N)C(=O)O; Butoxycarbonyl = CCCCOC(=O)*; Orn = NCCC[C@H](N)C(=O)O; Nva = CCC[C@H](N)C(=O)O; Pentanoyl = CCCCC(=O)*; Aib = CC(C)(N)C(=O)O; CO = O=C([*:1])[*:2]; NEtG = CCNCC(=O)O; NHBu = CCCCN*
Tests used:
[1] = biological target: T1, uPAR-expressing HEC-265 human endometrial adenocarcinoma cells (Homo sapiens, UniProt Q03405); assay: Competitive FACS binding assay; conditions: pIC50 category of FACS binding
T1 construct: Cell surface uPAR-expressing HEC-265 human endometrial adenocarcinoma cells; host or cells: HEC-265
T1 sequence (Q03405 23-335): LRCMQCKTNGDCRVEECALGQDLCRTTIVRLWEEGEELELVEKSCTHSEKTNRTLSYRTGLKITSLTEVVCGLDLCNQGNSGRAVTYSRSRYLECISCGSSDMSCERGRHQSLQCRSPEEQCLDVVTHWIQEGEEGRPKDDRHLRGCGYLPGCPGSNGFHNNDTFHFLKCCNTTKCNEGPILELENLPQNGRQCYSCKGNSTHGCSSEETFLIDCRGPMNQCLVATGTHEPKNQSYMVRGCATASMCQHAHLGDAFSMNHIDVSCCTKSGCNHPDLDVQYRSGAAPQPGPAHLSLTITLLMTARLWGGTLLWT
How it was run: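 HEC-265 cells incubated 1 h at 4 °C with 10 nM biotinylated uPAR peptide tracer plus increasing test compound, then stained with APC-streptavidin on ice. Median APC fluorescence by flow cytometry; 4PL fit gives pIC50.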

[2] = biological target: T2, human uPAR (uPAR-Fc) (Homo sapiens, UniProt Q03405); assay: Surface plasmon resonance (SPR) assay, single cycle kinetics; format: binding; conditions: pKD category for uPAR SPR activity assay, uPAR-Fc on Protein A-Chip, 25°C, read-out: pKD CAT (converted)
T2 construct: comprising amino acids Leu23-Arg303 according to UniProt entry Q03405.1; purchased R&D Systems 10378-UK-100
T2 sequence (Q03405 23-303): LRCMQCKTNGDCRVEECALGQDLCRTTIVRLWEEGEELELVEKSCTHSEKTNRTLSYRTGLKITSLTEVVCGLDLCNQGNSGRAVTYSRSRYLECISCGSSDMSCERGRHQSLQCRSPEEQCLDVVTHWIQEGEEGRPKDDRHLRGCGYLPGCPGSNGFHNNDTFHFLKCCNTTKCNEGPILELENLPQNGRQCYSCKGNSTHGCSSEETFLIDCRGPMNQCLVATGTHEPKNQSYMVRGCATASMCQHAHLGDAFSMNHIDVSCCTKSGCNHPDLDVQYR
How it was run: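 uPAR-Fc (Leu23-Arg303 extracellular domains, human IgG1 Fc) captured on Protein A chip to ~2000 RU; single-cycle kinetics at 25°C in HEPES running buffer pH 7.4 with 0.1% DMSO. KD from double-referenced sensorgrams fitted to 1:1 Langmuir model, reported as pKD.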

Row | SMILES | IC50 [1] [nM] | Kd [2] [nM] | Kd ([2]; single cycle kinetics) [nM]
1 | CCCCNC(=O)N[C@H]1CSSC[C@@H](C(N)=O)NC(=O)[C@H](CC(C)C)NC(=O)[C@H]([C@@H](C)CC)NC(=O)[C@@H](C)NC(=O)[C@@H]2CCCN2C(=O)[C@H](Cc2ccccc2)NC(=O)[C@H](Cc2ccc(O)cc2)NC(=O)[C@H](CCC(N)=O)NC(=O)[C@H](CCCNC(N)=O)NC1=O [UPAR-286, nBuCAyl-[Cys-Cit-Gln-Tyr-Phe-Pro-ala-Ile-Leu-Cys]-NH2] ({NHBu-CO}-C[Cit]QYFP[dA]ILC-NH2; disulfide 1-10) | ≤ 10 | < 1.58 | 
2 | CCNCC(=O)N[C@H]1CSSC[C@@H](C(N)=O)NC(=O)[C@H](CC(C)C)NC(=O)[C@H]([C@@H](C)CC)NC(=O)[C@@H](C)NC(=O)[C@@H]2CCCN2C(=O)[C@H](Cc2ccccc2)NC(=O)[C@H](Cc2ccc(O)cc2)NC(=O)[C@H](CCC(N)=O)NC(=O)[C@H](CCCNC(N)=O)NC1=O [UPAR-462, H-NEtg-[Cys-Cit-Gln-Tyr-Phe-Pro-ala-Ile-Leu-Cys]-NH2] (H-[NEtG]C[Cit]QYFP[dA]ILC-NH2; disulfide 2-11) | 39.8 to 100 |  | 10 to 100
3 | CCCCC(=O)N[C@H]1CSSC[C@@H](C(N)=O)NC(=O)[C@H](CC2CC2)NC(=O)[C@H]([C@@H](C)CC)NC(=O)[C@@H]2C[C@@H](O)CN2C(=O)[C@@H]2CCCN2C(=O)[C@H](Cc2ccccc2)NC(=O)[C@H](Cc2ccc(O)cc2)NC(=O)[C@H](CCC(N)=O)NC(=O)[C@H](CCCNC(=N)N)NC1=O [UPAR-379, Pent-[Cys-Arg-Gln-Tyr-Phe-Pro-Hyp-Ile-Cpra-Cys]-NHz] (Pentanoyl-CRQYFP[Hyp]I[Ala(cPr)]C-NH2; disulfide 1-10) | ≤ 10 |  | < 1.58
4 | CC[C@H](C)[C@@H]1NC(=O)[C@@H](C)NC(=O)[C@@H]2CCCN2C(=O)[C@H](Cc2cccc3ccccc23)NC(=O)[C@H](Cc2ccc(O)cc2)NC(=O)[C@H](CCC(N)=O)NC(=O)[C@H](CCCNC(N)=O)NC(=O)[C@@H](NC(=O)CCC(C)C)CSSC[C@@H](C(N)=O)NC(=O)[C@H](CC(C)C)NC1=O [UPAR-310, iHex-[Cys-Cit-Gln-Tyr-1Ni-Pro-ala-Ile-Leu-Cys]-NH2] ({Pentanoyl(4-Me)}-C[Cit]QY[1Nal]P[dA]ILC-NH2; disulfide 1-10) | ≤ 10 | < 1.58 | 
5 | CC[C@H](C)[C@@H]1NC(=O)[C@@H](C)NC(=O)[C@@H]2CCCN2C(=O)[C@H](Cc2ccc(Cl)cc2)NC(=O)[C@H](Cc2ccc(O)cc2)NC(=O)[C@H](CCC(N)=O)NC(=O)[C@H](CCCNC(N)=O)NC(=O)[C@@H](NC(=O)CCC(C)C)CSSC[C@@H](C(N)=O)NC(=O)[C@H](CC(C)C)NC1=O [UPAR-332, iHex-[Cys-Cit-Gln-Tyr-Pcf-Pro-ala-Ile-Leu-Cys]-NH2] ({Pentanoyl(4-Me)}-C[Cit]QY[Phe(4-Cl)]P[dA]ILC-NH2; disulfide 1-10) | ≤ 10 | < 1.58 | 
6 | CC[C@H](C)[C@@H]1NC(=O)[C@@H](C)NC(=O)[C@@H]2CCCN2C(=O)[C@H](Cc2ccccc2)NC(=O)[C@H](Cc2ccc(O)cc2)NC(=O)C(C)(C)NC(=O)[C@H](CCCNC(N)=O)NC(=O)[C@@H](NC(=O)CCC(C)C)CSSC[C@@H](C(N)=O)NC(=O)[C@H](CC(C)C)NC1=O [UPAR-269, iHex-[Cys-Cit-Aib-Tyr-Phe-Pro-ala-Ile-Leu-Cys]-NH2] ({Pentanoyl(4-Me)}-C[Cit][Aib]YFP[dA]ILC-NH2; disulfide 1-10) | 12.6 to 31.6 | 1.58 to 10 | 
7 | CC[C@H](C)[C@@H]1NC(=O)[C@H](CCCCNC(=O)CN2CCN(CC(=O)O)CCN(CC(=O)O)CCN(CC(=O)O)CC2)NC(=O)[C@@H]2CCCN2C(=O)[C@H](Cc2ccccc2)NC(=O)[C@H](Cc2ccc(O)cc2)NC(=O)[C@H](CCC(N)=O)NC(=O)[C@H](CCCNC(N)=O)NC(=O)[C@@H](NC(=O)CCC(C)C)CSSC[C@@H](C(N)=O)NC(=O)[C@H](CC(C)C)NC1=O [UPAR-145, iHex-[Cys-Cit-Gln-Tyr-Phe-Pro-Lys(DOTA)-Ile-Leu-Cys]-NH2] ({Pentanoyl(4-Me)}-C[Cit]QYFPK(DOTA)ILC-NH2; disulfide 1-10) | ≤ 10 | < 1.58 | 
8 | CC[C@H](C)[C@@H]1NC(=O)[C@@H](C)NC(=O)[C@@H]2CCCN2C(=O)[C@H](C)NC(=O)[C@H](Cc2ccc(O)cc2)NC(=O)[C@H](CCC(N)=O)NC(=O)[C@H](CCCNC(N)=O)NC(=O)[C@@H](NC(=O)CCC(C)C)CSSC[C@@H](C(N)=O)NC(=O)[C@H](CC(C)C)NC1=O [UPAR-263, iHex-[Cys-Cit-Gln-Tyr-Ala-Pro-ala-Ile-Leu-Cys]-NH2] ({Pentanoyl(4-Me)}-C[Cit]QYAP[dA]ILC-NH2; disulfide 1-10) | ≥ 126 | > 100 | 
9 | CC[C@H](C)[C@@H]1NC(=O)[C@@H](C)NC(=O)[C@@H]2C[C@@H](N)CN2C(=O)[C@H](Cc2ccccc2)NC(=O)[C@H](Cc2ccc(O)cc2)NC(=O)[C@H](CCC(N)=O)NC(=O)[C@H](CCCNC(N)=O)NC(=O)[C@@H](NC(=O)CCC(C)C)CSSC[C@@H](C(N)=O)NC(=O)[C@H](CC(C)C)NC1=O [UPAR-163, iHex-[Cys-Cit-Gln-Tyr-Phe-Tap-ala-Ile-Leu-Cys]-NH2] ({Pentanoyl(4-Me)}-C[Cit]QYF[Pro(4R-NH2)][dA]ILC-NH2; disulfide 1-10) | 12.6 to 31.6 | 1.58 to 10 | 
10 | CCCCOC(=O)N[C@H]1CSSC[C@@H](C(N)=O)NC(=O)[C@H](CCC)NC(=O)[C@H]([C@@H](C)CC)NC(=O)[C@@H]2C[C@@H](O)CN2C(=O)[C@@H]2C[C@H](F)CN2C(=O)[C@H](Cc2ccccc2)NC(=O)[C@H](Cc2ccc(O)cc2)NC(=O)[C@H](CCCCNC(=O)CN2CCN(C(=O)CN3CCN(CC(=O)O)CCN(CC(=O)O)CCN(CC(=O)O)CC3)CC2)NC(=O)[C@H]([C@@H](C)O)NC1=O [UPAR-181, Butoc-[Cys-Thr-Lys(DOTA-PPAc)-Tyr-Phe-4Cfp-Hyp-Ile-Nva-Cys]-NH2] (Butoxycarbonyl-CTK(Acetyl(4-DOTA-piperazinyl))YF[Pro(cis-4-F)][Hyp]I[Nva]C-NH2; disulfide 1-10) | ≤ 10 | < 1.58 | 
11 | CC[C@H](C)[C@@H]1NC(=O)[C@@H](C)NC(=O)[C@@H]2CCCN2C(=O)[C@H](Cc2cccc(Cl)c2)NC(=O)[C@H](Cc2ccc(O)cc2)NC(=O)[C@H](CCC(N)=O)NC(=O)[C@H](CCCNC(N)=O)NC(=O)[C@@H](NC(=O)CCC(C)C)CSSC[C@@H](C(N)=O)NC(=O)[C@H](CC(C)C)NC1=O [UPAR-227, iHex-[Cys-Cit-Gln-Tyr-Mcf-Pro-ala-Ile-Leu-Cys]-NH2] ({Pentanoyl(4-Me)}-C[Cit]QY[Phe(3-Cl)]P[dA]ILC-NH2; disulfide 1-10) | ≤ 10 | < 1.58 | 
12 | CCCCC(=O)N[C@H]1CSSC[C@@H](C(N)=O)NC(=O)[C@H](CCC)NC(=O)[C@H]([C@@H](C)CC)NC(=O)[C@@H]2C[C@@H](O)CN2C(=O)[C@@H]2C[C@@H](O)CN2C(=O)[C@H](Cc2ccccc2)NC(=O)[C@H](Cc2ccc(O)cc2)NC(=O)[C@H](CCCCNC(=O)CN2CCN(CC(=O)O)CCN(CC(=O)O)CCN(CC(=O)O)CC2)NC(=O)[C@H]([C@@H](C)O)NC1=O [UPAR-135, Pent-[Cys-Thr-Lys(DOTA)-Tyr-Phe-Hyp-Hyp-Ile-Nva-Cys]-NH2] (Pentanoyl-CTK(DOTA)YF[Hyp][Hyp]I[Nva]C-NH2; disulfide 1-10) | ≤ 10 | < 1.58 | 
13 | CCCCC(=O)N[C@H]1CSSC[C@@H](C(N)=O)NC(=O)[C@H](CCC)NC(=O)[C@H]([C@@H](C)CC)NC(=O)[C@@H]2C[C@@H](O)CN2C(=O)[C@@H]2CCCN2C(=O)[C@H](Cc2ccccc2)NC(=O)[C@H](Cc2ccc(O)cc2)NC(=O)[C@H](CCC(N)=O)NC(=O)[C@H](CCCNC(N)=O)NC1=O [UPAR-309, Pent-[Cys-Cit-Gln-Tyr-Phe-Pro-Hyp-Ile-Nva-Cys]-NHz] (Pentanoyl-C[Cit]QYFP[Hyp]I[Nva]C-NH2; disulfide 1-10) | ≤ 10 | < 1.58 | 
14 | CCCCOC(=O)N[C@H]1CSSC[C@@H](C(N)=O)NC(=O)[C@H](CCC)NC(=O)[C@H]([C@@H](C)CC)NC(=O)[C@@H]2C[C@@H](O)CN2C(=O)[C@@H]2C[C@H](F)CN2C(=O)[C@H](Cc2ccccc2)NC(=O)[C@H](Cc2cccc(O)c2)NC(=O)[C@H](CCCNC(=O)CN2CCN(CC(=O)O)CCN(CC(=O)O)CCN(CC(=O)O)CC2)NC(=O)[C@H]([C@@H](C)O)NC1=O [UPAR-415, Butoc-[Cys-Thr-Orn(DOTA)-My-Phe-4Cfp-Hyp-Ile-Nva-Cys]-NH2] (Butoxycarbonyl-CT[Orn](DOTA)[mTyr]F[Pro(cis-4-F)][Hyp]I[Nva]C-NH2; disulfide 1-10) | ≤ 10 |  | < 1.58
15 | CC(C)CCC(=O)N[C@H]1CSSC[C@@H](C(N)=O)NC(=O)[C@H](CC(C)C)NC(=O)[C@H](CC2CCCCC2)NC(=O)[C@@H](C)NC(=O)[C@@H]2CCCN2C(=O)[C@H](Cc2ccccc2)NC(=O)[C@H](Cc2ccc(O)cc2)NC(=O)[C@H](CCC(N)=O)NC(=O)[C@H](CCCNC(N)=O)NC1=O [UPAR-326, iHex-[Cys-Cit-Gln-Tyr-Phe-Pro-ala-Cha-Leu-Cys]-NH2] ({Pentanoyl(4-Me)}-C[Cit]QYFP[dA][Cha]LC-NH2; disulfide 1-10) | ≤ 10 | < 1.58 | 

From patent EP4610269A1, “UROKINASE PLASMINOGEN ACTIVATOR SURFACE RECEPTOR (UPAR) LIGANDS FOR DIAGNOSTIC OR THERAPEUTIC USE” (3B Pharmaceuticals GmbH, priority 2024, dated 2025)
